Reference: patent publication US8871681B2, “Herbicidal compositions comprising 4-amino-3-chloro-5-fluoro-6-(4-chloro-2-fluoro-3-methoxyphenyl) pyridine-2-carboxylic acid or a derivative thereof and certain sulfonylureas” (Dow AgroSciences LLC, priority 2012, dated 2014)
Like-named read-outs stand apart in the source and are kept apart here.

Assays:
Test in all cases: Postemergence foliar-applied weed control, direct seeded rice, greenhouse (Example I)
[1] = test system: BRAPP (Brachiaria platyphylla, broadleaf signalgrass); format: in vivo, Brachiaria platyphylla (Griseb.) Nash; conditions: Urochloa platyphylla, post-emergence, read-out: Visual Weed Control (%) Obs; for pest or weed control at 17.5 g/ha: 17.5 gai/ha
How it was run: (§1)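 Greenhouse-grown plants in loam/sandy loam–grit soil (14 h photoperiod, ~29/26 °C) were sprayed postemergence at the first to fourth true leaf stage. Compound A (acid equivalent basis) and ALS-inhibiting sulfonylureas (active ingredient basis) were applied alone and in combination in 1.25% (v/v) crop oil concentrate at 187 L/ha by track sprayer; controls received solvent blank.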

[2] = test system: LEFCH (Leptochloa chinensis, Chinese sprangletop); format: in vivo, Leptochloa chinensis (L.) Nees; conditions: Dinebra chinensis, post-emergence, read-out: Visual Weed Control (%) Obs; for pest or weed control at 8.75 g/ha: 8.75 gae/ha
How it was run: as §1

[3] = test system: CYPIR (Cyperus iria, rice flatsedge); format: in vivo, Cyperus iria L.
How it was run: as §1

[4] = test system: IPOHE (Ipomoea hederacea, ivyleaf morningglory); format: in vivo, Ipomoea hederacea Jacq.
How it was run: as §1

[5] = test system: ECHCG (Echinochloa crusgalli, barnyardgrass); format: in vivo, Echinochloa crusgalli (L.) Beauv.
Excerpt: Seeds or nutlets of the desired test plant species were planted in a soil matrix prepared by mixing a loam or sandy loam soil (e.g., 28.6 percent silt, 18.8 percent clay, and 52.6 percent sand, with a pH of about 5.8 and an organic matter content of about 1.8 percent) and calcareous grit in an 80 to 20 ratio. The soil matrix was contained in plastic pots with a volume of 1 quart and a surface area of 83.6 square centimeters (cm^2). When required to ensure good germination and healthy plants, a fungicide treatment and/or other chemical or physical treatment was applied. The plants were grown for 8-22 days in a greenhouse with an approximate 14 h photoperiod which was maintained at about 29° C. during the day and 26° C. during the night. Nutrients (Peters Excel® 15-5-15 5-Ca 2-Mg and iron chelate) were applied in the irrigation solution as needed and water was added on a regular basis. Supplemental lighting was provided with overhead metal halide 1000-Watt lamps as necessary. The plants were employed for testing when they reached the first through fourth true leaf stage.
Treatments consisted of the acid or esters of 4-amino-3-chloro-5-fluoro-6-(4-chloro-2-fluoro-3-methoxy-phenyl)pyridine-2-carboxylic acid (Compound A), each formulated as an SC, and various herbicidal components alone and in combination. Forms of compound A were applied on an acid equivalent basis.
Other herbicidal components were applied on an active ingredient basis and included acetolactate synthase (ALS)-inhibiting herbicides (sulfonylurea chemical class) azimsulfuron formulated as Gulliver®, bensulfuron-methyl formulated as Londax® 60DF, cyclosulfamuron (technical material), ethoxysulfuron formulated as Sunrice® 15 WDG, flazasulfuron formulated as Katana®, flucetosulfuron formulated as Sukedachi® 1KG G, foramsulfuron formulated as Option®, imazosulfuron formulated as Brazzos® WG, iodosulfuron-methyl-sodium formulated as Hussar®, metsulfuron-methyl formulated as Lorate®, nicosulfuron formulated as Accent®, orthosulfamuron formulated as Strada® WG, primisulfuron-methyl (technical material), propyrisulfuron formulated as Zeta One®, rimsulfuron formulated as Matrix® WG, sulfometuron-methyl formulated as Oust®, and trifloxysulfuron-sodium formulated as Monument® 75WG.
Treatment requirements were calculated based upon the rates being tested, the concentration of active ingredient or acid equivalent in the formulation, and a 12 mL application volume at a rate of 187 L/ha.
For treatments comprised of formulated compounds, measured amounts of compounds were placed individually in 25 mL glass vials and diluted in a volume of 1.25% (v/v) Agri-Dex® crop oil concentrated to obtain 12× stock solutions. […] Application solutions were prepared by adding an appropriate amount of each stock solution (e.g., 1 mL) and diluted to the appropriate final concentrations with the addition of 10 mL of an aqueous mixture of 1.25% (v/v) crop oil concentrate so that the final spray solutions contained 1.25+/−0.05% (v/v) Agrcrop oil concentrate.
For treatments comprised of formulated and technical compounds, weighed amounts of the technical materials were placed individually in 25 mL glass vials and dissolved in a volume of 97:3 v/v acetone/DMSO to obtain 12× stock solutions, and measured amounts of the formulated compounds were placed individually in 25 mL glass vials and diluted in a volume of 1.25% (v/v) crop oil concentrate to obtain 12× stock solutions. […] Application solutions were prepared by adding an appropriate amount of each stock solution (e.g., 1 mL) and diluted to the appropriate final concentrations with the addition of an appropriate amount of an aqueous mixture of 1.5% (v/v) crop oil concentrate so that the final spray solutions contained 1.25% (v/v) crop oil concentrate. […]

For `COc1c(Cl)ccc(-c2nc(C(=O)O)c(Cl)c(N)c2F)c1F` [Compound A Acid, 4-amino-3-chloro-5-fluoro-6-(4-chloro-2-fluoro-3-methoxy-phenyl)pyridine-2-carboxylic acid], which pest or weed control at 4.38 g/ha ([1]; 480 h, 20 DAA, 4.38 gae/ha) is on record?
Its pest or weed control at 4.38 g/ha is 10%.

What about the pest or weed control at 4.38 g/ha ([1]; 504 h, 21 DAA, 4.38 gae/ha) of the same compound?
Its pest or weed control at 4.38 g/ha is 40%.

What about the pest or weed control at 4.38 g/ha ([1]; 504 h, 21 DAA, 4.38 gae/ha, second series) of the same compound?
The pest or weed control at 4.38 g/ha was 50%.

And the pest or weed control at 4.38 g/ha ([2]; 480 h, 20 DAA, 4.38 gae/ha)?
Its pest or weed control at 4.38 g/ha is 0%.

What about the pest or weed control at 5.3 g/ha ([2]; 480 h, 20 DAA, 5.3 gae/ha) of the same compound?
The pest or weed control at 5.3 g/ha was 0%.

And the pest or weed control at 8.75 g/ha ([2]; 480 h, 20 DAA)?
The pest or weed control at 8.75 g/ha was 0%.

And the pest or weed control at 10.6 g/ha ([2]; 480 h, 20 DAA, 10.6 gae/ha)?
The pest or weed control at 10.6 g/ha was 10%.

And the pest or weed control at 17.5 g/ha ([2]; 480 h, 20 DAA, 17.5 gae/ha)?
The pest or weed control at 17.5 g/ha was 10%.

And the pest or weed control at 19.4 g/ha ([2]; 480 h, 20 DAA, 19.4 gae/ha)?
The pest or weed control at 19.4 g/ha was 5%.

What about the pest or weed control at 21.2 g/ha ([2]; 480 h, 20 DAA, 21.2 gae/ha) of the same compound?
The pest or weed control at 21.2 g/ha was 15%.

What about the pest or weed control at 8.75 g/ha ([2]; 504 h, 21 DAA) of the same compound?
The pest or weed control at 8.75 g/ha was 40%.

What about the pest or weed control at 17.5 g/ha ([2]; 504 h, 21 DAA, 17.5 gae/ha) of the same compound?
Its pest or weed control at 17.5 g/ha is 30%.

What about the “Visual Weed Control (%) Obs” value ([3]; 21 DAA, 4.38 gae/ha) of the same compound?
The value was 70%.

What about the “Visual Weed Control (%) Obs” value ([3]; 22 DAA, 8 gae/ha) of the same compound?
Its value is 60%.

What about the “Visual Weed Control (%) Obs” value ([3]; 22 DAA, 16 gae/ha) of the same compound?
The value was 90%.

What about the “Visual Weed Control (%) Obs” value ([4]; 20 DAA, 5.3 gae/ha) of the same compound?
The value was 0%.

And the “Visual Weed Control (%) Obs” value ([4]; 20 DAA, 10.6 gae/ha)?
Its value is 15%.

And the “Visual Weed Control (%) Obs” value ([4]; 20 DAA, 21.2 gae/ha)?
Its value is 25%.

What about the “Visual Weed Control (%) Obs” value ([4]; 21 DAA, 4.38 gae/ha) of the same compound?
Its value is 25%.

What about the “Visual Weed Control (%) Obs” value ([4]; 21 DAA, 8.75 gae/ha) of the same compound?
The value was 30%.

What about the “Visual Weed Control (%) Obs” value ([4]; 21 DAA, 17.5 gae/ha) of the same compound?
The value was 45%.

What about the “Visual Weed Control (%) Obs” value ([4]; 22 DAA, 8 gae/ha) of the same compound?
Its value is 25%.

And the “Visual Weed Control (%) Obs” value ([4]; 22 DAA, 16 gae/ha)?
Its value is 35%.

What about the “Visual Weed Control (%) Obs” value ([4]; 22 DAA, 32 gae/ha) of the same compound?
The value was 40%.

What about the “Visual Weed Control (%) Obs” value ([5]; 21 DAA, 4.38 gae/ha) of the same compound?
The value was 15%.

And the “Visual Weed Control (%) Obs” value ([5]; 21 DAA, 8.75 gae/ha)?
The value was 50%.

`COCC(=O)OC(c1ncccc1S(=O)(=O)NC(=O)Nc1nc(OC)cc(OC)n1)C(C)F` (centres unmarked) [Flucetosulfuron, 1-[3-[[[[(4,6-dimethoxy-2-pyrimidinyl)amino]carbonyl]amino]sulfonyl]-2-pyridinyl]-2-fluoropropyl 2-methoxyacetate] was tested. Which pest or weed control at 0.05 g/ha ([1]; 504 h, 21 DAA, 0.05 gai/ha) did it give?
The pest or weed control at 0.05 g/ha was 0%.

What about the pest or weed control at 0.1 g/ha ([1]; 504 h, 21 DAA, 0.1 gai/ha) of the same compound?
Its pest or weed control at 0.1 g/ha is 0%.

And the pest or weed control at 0.2 g/ha ([1]; 504 h, 21 DAA, 0.2 gai/ha)?
The pest or weed control at 0.2 g/ha was 0%.

And the pest or weed control at 1.7 g/ha ([1]; 528 h, 22 DAA, 1.7 gai/ha)?
Its pest or weed control at 1.7 g/ha is 0%.

What about the pest or weed control at 0.05 g/ha ([2]; 504 h, 21 DAA, 0.05 gai/ha) of the same compound?
The pest or weed control at 0.05 g/ha was 0%.

And the pest or weed control at 0.1 g/ha ([2]; 504 h, 21 DAA, 0.1 gai/ha)?
Its pest or weed control at 0.1 g/ha is 0%.

What about the pest or weed control at 1.7 g/ha ([2]; 528 h, 22 DAA, 1.7 gai/ha) of the same compound?
Its pest or weed control at 1.7 g/ha is 0%.

And the pest or weed control at 5 g/ha ([2]; 528 h, 22 DAA, 5 gai/ha)?
The pest or weed control at 5 g/ha was 0%.

And the “Visual Weed Control (%) Obs” value ([3]; 21 DAA, 0.05 gai/ha)?
Its value is 0%.

What about the “Visual Weed Control (%) Obs” value ([3]; 21 DAA, 0.1 gai/ha) of the same compound?
The value was 0%.

And the “Visual Weed Control (%) Obs” value ([3]; 21 DAA, 0.2 gai/ha)?
The value was 20%.

And the “Visual Weed Control (%) Obs” value ([4]; 21 DAA, 0.05 gai/ha)?
Its value is 20%.

And the “Visual Weed Control (%) Obs” value ([4]; 21 DAA, 0.2 gai/ha)?
The value was 20%.

And the “Visual Weed Control (%) Obs” value ([4]; 22 DAA, 5 gai/ha)?
The value was 90%.

And the “Visual Weed Control (%) Obs” value ([4]; 22 DAA, 10 gai/ha)?
The value was 90%.

Which pest or weed control at 7.5 g/ha ([1]; 480 h, 20 DAA, 7.5 gai/ha) does the source give for `COC(=O)c1ccccc1S(=O)(=O)NC(=O)Nc1nc(C)nc(OC)n1` [Metsulfuron-methyl, methyl 2-[[[[(4-methoxy-6-methyl-1,3,5-triazin-2-yl)amino]carbonyl]amino]sulfonyl]benzoate, reference compound] here?
Its pest or weed control at 7.5 g/ha is 0%.

And the pest or weed control at 15 g/ha ([1]; 480 h, 20 DAA, 15 gai/ha)?
The pest or weed control at 15 g/ha was 20%.

Which pest or weed control at 4.38 g/ha ([1]; 504 h, 21 DAA, 4.38 gai/ha) does the source give for `COC(=O)c1ccccc1CS(=O)(=O)NC(=O)Nc1nc(OC)cc(OC)n1` [Bensulfuron-methyl, methyl 2-[[[[[(4,6-dimethoxy-2-pyrimidinyl)amino]carbonyl]amino]sulfonyl]methyl]benzoate, reference compound] here?
Its pest or weed control at 4.38 g/ha is 0%.

What about the pest or weed control at 8.75 g/ha ([1]; 504 h, 21 DAA, 8.75 gai/ha) of the same compound?
Its pest or weed control at 8.75 g/ha is 0%.

And the pest or weed control at 17.5 g/ha ([1]; 504 h, 21 DAA)?
The pest or weed control at 17.5 g/ha was 0%.

What about the pest or weed control at 17.5 g/ha ([1]; 504 h, 21 DAA, second series) of the same compound?
Its pest or weed control at 17.5 g/ha is 0%.

What about the pest or weed control at 35 g/ha ([1]; 504 h, 21 DAA, 35 gai/ha, second series) of the same compound?
Its pest or weed control at 35 g/ha is 0%.

And the pest or weed control at 70 g/ha ([2]; 480 h, 20 DAA, 70 gai/ha)?
The pest or weed control at 70 g/ha was 5%.

What about the pest or weed control at 17.5 g/ha ([2]; 504 h, 21 DAA, 17.5 gai/ha) of the same compound?
Its pest or weed control at 17.5 g/ha is 10%.

What about the pest or weed control at 35 g/ha ([2]; 504 h, 21 DAA, 35 gai/ha) of the same compound?
Its pest or weed control at 35 g/ha is 10%.

And the “Visual Weed Control (%) Obs” value ([5]; 21 DAA, 17.5 gai/ha)?
The value was 0%.

What about the “Visual Weed Control (%) Obs” value ([5]; 21 DAA, 35 gai/ha) of the same compound?
The value was 0%.

And the “Visual Weed Control (%) Obs” value ([5]; 27 DAA, 4.38 gai/ha)?
Its value is 0%.

And the “Visual Weed Control (%) Obs” value ([5]; 27 DAA, 8.75 gai/ha)?
Its value is 0%.

And the “Visual Weed Control (%) Obs” value ([5]; 27 DAA, 17.5 gai/ha)?
The value was 0%.
